Reference: paper PMC8835363, “Arachidin-1, a Prenylated Stilbenoid from Peanut, Induces Apoptosis in Triple-Negative Breast Cancer Cells” (International Journal of Molecular Sciences, 2022)

What was measured:
[1] = test system: human leukemia HL-60 cell line; design: method as in PMID 21067217; details: 72 h treatment; cited from earlier work
[2] = test system: caspase-3/7 activity in MDA-MB-231 cells; test: Apo-ONE Homogenous Caspase-3/7 Assay; type: cell-based, human; details: 0.1, 1, 10 µM, 48 h
Procedure: (§1) The Apo-ONE® Homogenous Caspase-3/7 Assay (Promega, Madison, WI, USA) was used for measuring caspase-3/7 activity. Cells (10,000 cells/well) were seeded in 96-well plates. After 24 h, the cells were treated with A-1, A-3, and RES, and incubated for an additional 48 h at 37 °C, with a humidified atmosphere of 5% CO2 (however, MDA-MB-436 cells were incubated in 0% CO2). Control groups were cells treated with 0.01% DMSO (ATCC; Manassas, VA, USA). According to the manufacturer, after 48 h of treatment, the caspase reagent was added to the cells and the plates were incubated at room temperature in the dark for 1 h. Then, fluorescence was measured every hour for a total of 4 h using the Cytation^TM 5 (BioTek; Winooski, VT, USA) plate reader at an excitation wavelength of 485 ± 20 nm and emission of 530 ± 25 nm.

[3] = test system: caspase-3/7 activity in MDA-MB-436 cells; test: Apo-ONE Homogenous Caspase-3/7 Assay; type: cell-based, human; details: 0.1, 1, 10 µM, 48 h
Procedure: as §1

[4] = test system: peripheral blood mononuclear cells (PBMCs); design: method as in PMID 21067217; details: cited from earlier work
MDA-MB-436 cells = test: RealTime-Glo MT cell viability (cytotoxicity) assay; type: cell-based, human; details: for IC50: Homo sapiens
Procedure: (§2) The cytotoxicity of RES, A-1, and A-3 was measured using the RealTime-Glo^TM MT Cell Viability Assay (Promega, Madison, WI, USA). The cells (10,000 cells/well) were seeded into 96-well plates. […] Cells with 0.1% DMSO (ATCC; Manassas, VA, USA) were included as a control. Luminescence was measured every 12 h for 72 total hours in a Cytation^TM 5 (BioTek, Winooski, VT, USA) plate reader. All experiments were performed in triplicates.

MDA-MB-231 cells = test: as above; type: cell-based, human; details: for IC50: Homo sapiens
Procedure: as §2

MCF-10A cells = test: as above; type: cell-based, human; details: 1 µM, 24, 48, 72 h
Procedure: The cytotoxicity of RES, A-1, and A-3 was measured using the RealTime-Glo^TM MT Cell Viability Assay (Promega, Madison, WI, USA). The cells (10,000 cells/well) were seeded into 96-well plates. After 24 h, they were treated with various 10-fold dilutions of RES, A-1, and A-3 with concentrations ranging from 0.1 µM to 1000 µM. Cells with 0.1% DMSO (ATCC; Manassas, VA, USA) were included as a control. Luminescence was measured every 12 h for 72 total hours in a Cytation^TM 5 (BioTek, Winooski, VT, USA) plate reader. All experiments were performed in triplicates.

Q: For `CC(C)/C=C/c1c(O)cc(/C=C/c2ccc(O)c(O)c2)cc1O` [A-1, arachidin-1], which IC50 [1] is on record?
A: The IC50 was 4.2 µM.

Q: What about the “caspase-3/7 activity vs control” value [2] of the same compound?
A: The value was “significant increase of dose-dependent caspase-3/7 activities”.

Q: What about the “caspase-3/7 activity vs control” value [3] of the same compound?
A: The value was “significant increase of dose-dependent caspase-3/7 activities”.

Q: What about the “cytotoxic effects on PBMCs” value [4] of the same compound?
A: The value was “no cytotoxic effects”.

Q: And the IC50 (MDA-MB-436 cells; MDA-MB-436, 24 h, MDA-MB-436, 24 h)?
A: Its IC50 is 12 µM.

Q: What about the IC50 (MDA-MB-436 cells; MDA-MB-436, 24 h, MDA-MB-436, 24 h, in Figure 2 panels) of the same compound?
A: Its IC50 is 1.62 µM.

Q: And the IC50 (MDA-MB-436 cells; MDA-MB-436, 48 h, MDA-MB-436, 48 h)?
A: Its IC50 is 6.2 µM.

Q: What about the IC50 (MDA-MB-436 cells; MDA-MB-436, 48 h, MDA-MB-436, 48 h, in Figure 2 panels) of the same compound?
A: Its IC50 is 2.74 µM.

Q: What about the IC50 (MDA-MB-436 cells; MDA-MB-436, 72 h, MDA-MB-436, 72 h) of the same compound?
A: Its IC50 is 2.09 µM.

Q: And the IC50 (MDA-MB-436 cells; MDA-MB-436, 72 h, MDA-MB-436, 72 h, in Figure 2 panels)?
A: Its IC50 is 2.09 µM.

Q: And the IC50 (MDA-MB-436 cells; MDA-MB-436, MDA-MB-436, all treatment time points)?
A: The IC50 was about 2 µM.

Q: And the “antiproliferative effect (cell viability vs control)” value (MDA-MB-436 cells; MDA-MB-436, 1 µM, 24, 48, 72 h)?
A: The value was “cell proliferation reductions”.

Q: And the “growth inhibition at low concentrations” value (MDA-MB-436 cells; MDA-MB-436, 0.01-10 µM, 72 h)?
A: Its value is “higher inhibitory growth effects at lower micromolar concentrations when compared to RES”.

Q: And the “fold lower IC50 of A-1 than A-3” value (MDA-MB-436 cells; MDA-MB-436, 24 h)?
A: Its value is “nine-fold”.

Q: And the “fold lower IC50 of A-1 than RES” value (MDA-MB-436 cells; MDA-MB-436, 24 h)?
A: The value was “eight-fold”.

Q: What about the IC50 (MDA-MB-231 cells; MDA-MB-231, 24 h, MDA-MB-231, 24 h, in Figure 2 panels) of the same compound?
A: Its IC50 is 1.84 µM.

Q: And the IC50 (MDA-MB-231 cells; MDA-MB-231, 24 h, MDA-MB-231, 24 h of treatment)?
A: The IC50 was 2.68 µM.

Q: What about the IC50 (MDA-MB-231 cells; MDA-MB-231, 48 h, MDA-MB-231, 48 h, in Figure 2 panels) of the same compound?
A: Its IC50 is 1.42 µM.

Q: And the IC50 (MDA-MB-231 cells; MDA-MB-231, 48 h, MDA-MB-231, 48 h of treatment)?
A: Its IC50 is 7.82 µM.

Q: And the IC50 (MDA-MB-231 cells; MDA-MB-231, 72 h, MDA-MB-231, 72 h, in Figure 2 panels)?
A: The IC50 was 2.51 µM.

Q: What about the IC50 (MDA-MB-231 cells; MDA-MB-231, 72 h, MDA-MB-231, 72 h of treatment) of the same compound?
A: The IC50 was 2.51 µM.

Q: And the IC50 (MDA-MB-231 cells; MDA-MB-231, MDA-MB-231, all treatment time points)?
A: Its IC50 is about 2 µM.

Q: What about the “antiproliferative effect (cell viability vs control)” value (MDA-MB-231 cells; MDA-MB-231, 1 µM, 24, 48, 72 h) of the same compound?
A: Its value is “cell proliferation reductions”.

Q: What about the “growth inhibition at low concentrations” value (MDA-MB-231 cells; MDA-MB-231, 0.01-10 µM, 72 h) of the same compound?
A: Its value is “higher inhibitory growth effects at lower micromolar concentrations when compared to RES”.

Q: What about the “fold lower IC50 of A-1 than RES” value (MDA-MB-231 cells; MDA-MB-231, 24 h) of the same compound?
A: Its value is “six-fold”.

Q: And the “cytotoxicity in non-cancerous epithelial cells” value (MCF-10A cells)?
A: Its value is “did not show any statistically significant cytotoxicity”.
